Experimental data taken from article PMC10047683, “A Novel Family of Lysosomotropic Tetracyclic Compounds for Treating Leukemia” (Cancers, 2023).

Experiments:
TFEB = TFEB promoter-luciferase reporter; type: cell-based; conditions: HEK293T; 10 and 20 µM, 24 h
Method: We transfected 2.5 × 10^5 HEK-293T cells per condition using the jetPEI DNA transfection reagent (Polyplus) with TFEB promoter-luciferase reporter Addgene#66801. Then, at 24 h post-transfection, cells were treated at the indicated conditions, and the 48 h post-transfection luminescence of lysed cells was analyzed according to the manufacturer’s specifications.

AML patient samples = assay: Combination with ATO, viability by flow cytometry and Bliss synergy; type: cell-based, human; conditions: for Effectivity (%Viability reduction): 48 h
Method: (§1) First, 2 × 10^5 (72 h assays in cell lines (Supplementary File S1)), 3 × 10^5 (48 h assays in cell lines) or 7.5 × 10^5 (primary AML, healthy donor buffy coats) cells per mL were cultured in 96-well plates, and all drugs were added at the indicated concentrations. In α-tocopherol experiments, cells were treated with growing concentrations of α-tocopherol and EDK drugs for 48 h. In the NAC and 3MA experiments, treatment was simultaneous with EDK compounds. In glucose deprivation experiments, cells were cultivated with a standard medium (glucose high, 2 g/L), a standard medium without glucose, or a standard medium with galactose (2 g/L) and without glucose. Cell viability was measured via 7-AAD (eBioscience) exclusion and Hoechst33342 (Sigma-Aldrich, St. Louis, MO, USA) positivity staining via flow cytometry, and the cell count was obtained through volume. In the experiments with the primary cells, analyses were performed inside the blast population as detected via blast gates (CD45^low SSC^int). For solid tumor cell lines, viability was analyzed using CellTiter-Glo® Luminescent Cell Viability Assay (Promega).
(§2) Synergy was calculated using SynergyFinder 2.0 with the Bliss reference model.

[1] = test system: healthy donor blood samples (BC: buffy coat); assay: as above; type: cell-based, human; conditions: 48 h
Method: as §1, §2

HL60 [2] = assay: Dose-response viability curves in AML cell lines; type: cell-based; conditions: Homo sapiens, HL-60, 48 h
Method: as §1

SKM-1 = assay: Dose-response viability curves in AML cell lines; type: cell-based; conditions: Homo sapiens, 48 h
Method: as §1

KG1 = assay: Dose-response viability curves in AML cell lines; type: cell-based; conditions: Homo sapiens, KG-1, 48 h
Method: as §1

MonoMac1 [3] = assay: Dose-response viability curves in AML cell lines; type: cell-based; conditions: Mono-Mac-1, 48 h
Method: as §1

U937 = assay: Dose-response viability curves in AML cell lines; type: cell-based; conditions: Homo sapiens, U-937, 48 h
Method: as §1

THP1 = assay: Dose-response viability curves in AML cell lines; type: cell-based; conditions: Homo sapiens, THP-1, 48 h
Method: as §1

Kasumi-1 = assay: Dose-response viability curves in AML cell lines; type: cell-based; conditions: Homo sapiens, 48 h
Method: as §1

AML cell lines = assay: Lysosomal mass with Lysotracker probe; type: cell-based; conditions: 10 µM, 24 h
Method: Lysosomal mass was determined using Lysotracker DeepRed (Thermo Fisher, Waltham, MA, USA), and analyzed with cytometry and microscopy, as explained previously. The lysosomal activity assays were performed following the guidance of the study that first introduced the Lysosomal Metriq probe. AML cell lines were lentivirally transduced with the pCW57.1 Lysosomal-METRIQ plasmid (Addgene #135401), and selected with puromycin (2 µg/mL). Cells were treated for 3 consecutive days with 3 µg/mL doxycycline (Sigma Aldrich, St. Louis, MO, USA), incubated with the compounds of interest for 24 h, and analyzed in the flow cytometer. Lysosomal activity was measured as the ratio between red fluorescence (acting as an internal control) and green fluorescence (located in the lysosomes and degraded to different degrees depending on the activity of the lysosomal compartment). For the Galectin 3 puncta assay, AML cell lines were lentivirally transduced with the mAG-Gal3 plasmid (Addgene #62734). Treatments and analysis were performed as described elsewhere. Then, 2 × 10^5 cells per ml were pulsed with dextran-rhodamine (0.25 mg/mL) for 24 h, chased for 2 h, treated with EDK compounds at the indicated concentrations for 48 h, attached to poly-L-lysine (50 μg/mL)-coated chambered coverslips (μ-Slide 8 well, Ibidi), imaged in a Zeiss LSM880 microscope, and analyzed with Fiji software.

[4] = test system: primary AML samples (lineage-depleted umbilical cord blood cells as healthy counterpart); assay: Clonogenicity assay; type: cell-based, human
Method: 1,000 cells of AML cell lines or 50,000 primary cells (both AML and lin-depleted UCB) were treated at the indicated concentration for 18 h, and cultured in 1 mL of MethoCult H4034 Optimum (StemCell Technologies, Vancouver, BC, Canada).
Colonies were screened based on morphology and cellularity at day 7 (cell lines) […]
Calcium mobilization assay
1 x 10^6 cells per mL were loaded for 30’ at 37 °C with the Fura-2-AM probe (Thermo Fisher) at a final 2 µM concentration in pre-warmed calcium- and magnesium-free Hanks BSA solution. Cells were then washed and resuspended in Hanks BSA solution with calcium and magnesium at 3 x 10^5 cells per mL. In parallel, 50µL of drugs in Hanks BSA solution with calcium and magnesium were added to 96-well black wall clear bottom plates and background fluorescence was read at Ex340/Em508 and Ex380/Em508. Cells were then added to the plate (50µL/well) and fluorescence was acquired at indicated timepoints using a Synergy HT Multi-Detection Microplate Reader (BioTek). For the analysis, all values were subtracted their corresponding background fluorescence, and the ratio 340/380 was calculated. Finally, ratios were normalized to vehicle-treated […]
Semi-Quantitative Real Time PCR

HL60 [5] = assay: Combination with ATO in AML cell lines, viability and Bliss synergy; type: cell-based; conditions: upper maps (HL60), 48 h
Method: as §1, §2

MonoMac1 [6] = assay: as above; type: cell-based; conditions: lower maps (MonoMac1), 48 h
Method: as §1, §2

## CN1CCC(=C2c3ccccc3-c3c2sc2ccccc32)CC1 [EDK-87]
TFEB
  TFEB activity (reporter): activation of TFEB activity
AML patient samples; AML cell lines and three primary AML samples
  synergy with ATO: highly synergistic
AML patient samples; AML#63, single agent 5 µM
  Effectivity (%Viability reduction): -5%
AML patient samples; AML#63, single agent 10 µM
  Effectivity (%Viability reduction): -19%
AML patient samples; AML#98, single agent 1 µM
  Effectivity (%Viability reduction): -9%
AML patient samples; AML#98, single agent 5 µM
  Effectivity (%Viability reduction): 0%
AML patient samples; AML#98, single agent 10 µM
  Effectivity (%Viability reduction): 8%
AML patient samples; AML#133, single agent 1 µM
  Effectivity (%Viability reduction): -9%
AML patient samples; AML#133, single agent 5 µM
  Effectivity (%Viability reduction): 3%
AML patient samples; AML#133, single agent 10 µM
  Effectivity (%Viability reduction): 19%
[1]; BC#1, single agent 1 µM
  Effectivity (%Viability reduction): 0%
[1]; BC#1, single agent 5 µM
  Effectivity (%Viability reduction): 4%
[1]; BC#1, single agent 10 µM
  Effectivity (%Viability reduction): 19%
[1]; BC#2, single agent 1 µM
  Effectivity (%Viability reduction): 0%
[1]; BC#2, single agent 5 µM
  Effectivity (%Viability reduction): 4%
[1]; BC#2, single agent 10 µM
  Effectivity (%Viability reduction): 14%
HL60 [2]
  EC50: 6.2 ± 0.9 µM
SKM-1
  EC50: 8.1 ± 1.8 µM
KG1
  EC50: 7 ± 1.2 µM
MonoMac1 [3]
  EC50: 8.6 ± 1.4 µM
U937
  EC50: 6.9 ± 0.07 µM
THP1
  EC50: 11.2 ± 0.01 µM
Kasumi-1
  EC50: 6.3 ± 0.35 µM
AML cell lines
  lysosomal mass (Lysotracker): expansion of the lysosomal mass
[4]; primary AML samples
  clonogenicity, effect in AML: 77.9% ± 9.2
[4]; primary AML vs lineage-depleted umbilical cord blood
  therapeutic window (clonogenicity): 3.2
HL60 [5]; EDK compound alone 1 µM
  Effectivity (%Viability reduction): 18%
HL60 [5]; EDK compound alone 3 µM
  Effectivity (%Viability reduction): 30%
HL60 [5]; EDK compound alone 10 µM
  Effectivity (%Viability reduction): 84%
MonoMac1 [6]; EDK compound alone 1 µM
  Effectivity (%Viability reduction): 29%
MonoMac1 [6]; EDK compound alone 3 µM
  Effectivity (%Viability reduction): 33%
MonoMac1 [6]; EDK compound alone 10 µM
  Effectivity (%Viability reduction): 61%
